According to patent US20070129344A1, “Bicyclic 6-alkylidene-penem beta-lactamase inhibitors and beta-lactam antibiotic combination: a broad spectrum antibiotic” (priority 2005, published 2007):

Legend:
[1] = system: E. coli LSU 80-8 GC 6265 TEM-1; assay: MIC microbroth dilution; β-lactamase class A; format: cell-based; details: E. coli GC 6265; Cefepime + 4 ug/ml Compound 1
Method in brief: (§1)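 NCCLS microbroth dilution; MHBII; 35° C., ambient air, 18-22 hours.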

K. pn GC 1827 (TEM-3) = assay: MIC microbroth dilution; β-lactamase class A (ESBL); format: cell-based, K. pneumoniae; details: Cefepime + 4 ug/ml Compound 1
Method in brief: as §1

E. coli GC 2905 (P99) = assay: MIC microbroth dilution; β-lactamase class C; format: cell-based; details: Cefepime + 4 ug/ml Compound 1
Method in brief: (§2)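 Antibiotic activity was measured in vitro by microbroth dilution following NCCLS guidance. Mueller-Hinton II broth served as the test medium, and plates were kept in ambient air at 35° C. for 18-22 hours.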

[2] = system: P. aeruginosa GC 1764 AmpC-constitutive; assay: MIC microbroth dilution; β-lactamase class C; format: cell-based; details: Cefepime + 4 ug/ml Compound 1
Method in brief: as §2

[3] = system: S. marcescens GC 4150 Stably derepressed AmpC; assay: MIC microbroth dilution; β-lactamase class C; format: cell-based; details: Cefepime + 4 ug/ml Compound 1
Method in brief: as §2

[4] = system: S. marcescens PT 488 Stably derepressed AmpC; assay: MIC microbroth dilution; β-lactamase class C; format: cell-based; details: Cefepime + 4 ug/ml Compound 1
Method in brief: as §2

[5] = system: S. marcescens PT 6003 Stably derepressed AmpC; assay: MIC microbroth dilution; β-lactamase class C; format: cell-based; details: Cefepime + 4 ug/ml Compound 1
Method in brief: as §2

Q: What does the source list for `O=C([O-])C1=CS[C@@H]2/C(=C\c3cn4c(n3)CCC4)C(=O)N12.[Na+]` [Compound 1, (5R), (6Z)-6-(6,7-Dihydro-5H-pyrrolo[1,2-a]imidazol-2-ylmethylene)-7-oxo-4-thia-1-aza-bicyclo[3.2.0]hept-2-ene-2-carboxylic Acid, Sodium Salt]?
A: MIC [1]: 0.03 µg/mL; MIC (K. pn GC 1827 (TEM-3)): 0.03 µg/mL; MIC (E. coli GC 2905 (P99)): 0.06 µg/mL; MIC [2]: 0.50 µg/mL; MIC [3]: 0.25 µg/mL; MIC [4]: 0.06 µg/mL; MIC [5]: 0.25 µg/mL
